These results are taken from US20190388441A1, “NOVEL PRODRUGS OF MIZORIBINE” (KATHOLIEKE UNIVERSITEIT LEUVEN, priority 2017, published 2019).

Where two headings read alike, the source gives them in different places.

For data set [1], the target named is IMPDH (E. coli) (Escherichia coli, UniProt P0ADG7). Conditions: lower end of the range; cited from earlier work.
The target of data set [2] is hlMPDH1 (Homo sapiens, UniProt P20839). As to conditions: upper end of the range; cited from earlier work.
Data set [3] relates to DBA-1 mice with CIA. In words: chicken collagen type II induced rheumatoid arthritis (CIA) in DBA-1 mice. Format: in vivo. Conditions: monotherapy at given doses, 30 day-treatment. From the text:
Results of example 67 showing disease score in DBA-1 mice with CIA after a 30 day-treatment with the Mizoribine prodrug of example 19 alone and in combination with MMF or Mizoribine.
Example 67: Synergy of the Prodrug of Example 19 with MMF or Mizoribine in Treatment of DBA-1 Mice with Chicken Collagen Type II Induced Rheumatoid Arthritis (CIA)

Data set [4] deals with Balb/c mice. In words: subacute toxicity assay. Format: in vivo. Conditions: Day 0-14, n = 6. As for the experimental part:
Reduction of Toxicity by Combination of Ex19 and MZR Subacute Toxicity Assay
Balb/c mice were treated with MZR at 100 mpk PO or Ex19 at equal molecule dose to MZR from day 0-14.

Data set [5] relates to IL-2 production. Nature of the data set: suppression of IL-2 production in anti-CD3 antibody stimulated mice in vivo. On the set-up: species or system Balb/c mice. Conditions: Mus musculus; for inhibition at 65 mg/kg: 65 mpk PO; for inhibition at 25 mg/kg: 25 mpk PO; for inhibition at 55 mg/kg: 55 mpk PO; for inhibition at 40 mg/kg: 40 mpk PO; for inhibition at 50 mg/kg: 50 mpk PO. The method, then: Mizoribine prodrug-induced suppression of IL-2 production in anti-CD3 antibody stimulated mice in vivo.
Inbreed Balb/c mice, male, 8-10 week old, were pre-treated with Mycophenolate mofetil (MMF), Mizoribine and Mizoribine prodrugs at the different time intervals before anti-mouse CD3 antibody injection IP (1 μg per mouse). The doses of the prodrugs of examples 19, 40 and 48 were equal to Mizoribine on the bases of molecular weight. Four hours after anti-CD3 antibody stimulation, a volume of 100 μl peripheral blood was taken by eye puncture and serum IL-2 was quantified by FACS-beads technology. Briefly, an aliquot of 10 μl of serum was incubated with anti-mouse IL-2 antibody coated microbeads at 4° C. for 30 min. After washing twice with cold PBS, the beads were incubated with biotin-conjugated anti-mouse IL-2 antibody at 4° C. for 30 min. After washing twice with cold PBS, The beads were incubated with PE-conjugated avidin at 4° C. for 30 min. After washing twice with cold PBS, the samples were analyzed by flow cytometry. Results were expressed as mean of 2 mice in each group.

The subject of data set [6] is heart grafts from Balb/c donors in C57BL/6 recipient mice. In words: heart allograft survival in mice (heterotopic heart transplantation). Format: in vivo. As for the experimental part: Synergy of Mizoribine Prodrugs with FK506 to Prolong Heart Allograft Survival in Mice
Heterotopic hear transplantation was performed by placing heart grafts from Balb/c donors to the neck of C57BL/6 recipient mice using micro-suture technology, in which the aorta and pulmonary artery of the graft were connected to carotid artery and jugular vein, respectively. The function of grafts was monitored by daily inspection and palpation. Rejection was determined by cessation of graft beating and confirmed by histology.

Where [7] appears, read: given 1 hour before anti-CD3, mean of 2 mice, read-out: % inhibition of IL-2, 1 hour post administration.
Setting [8] is: given 4 hours before anti-CD3, mean of 2 mice, read-out: % inhibition of IL-2, 4 hour post administration.
Setting [9] is: given 8 hours before anti-CD3, mean of 2 mice, read-out: % inhibition of IL-2, 8 hour post administration.
[10] abbreviates: 1 to 8 hours post administration, read-out: inhibition of IL-2, range up to 8 hours post administration.

Sequence of hlMPDH1 (P20839 whole entry): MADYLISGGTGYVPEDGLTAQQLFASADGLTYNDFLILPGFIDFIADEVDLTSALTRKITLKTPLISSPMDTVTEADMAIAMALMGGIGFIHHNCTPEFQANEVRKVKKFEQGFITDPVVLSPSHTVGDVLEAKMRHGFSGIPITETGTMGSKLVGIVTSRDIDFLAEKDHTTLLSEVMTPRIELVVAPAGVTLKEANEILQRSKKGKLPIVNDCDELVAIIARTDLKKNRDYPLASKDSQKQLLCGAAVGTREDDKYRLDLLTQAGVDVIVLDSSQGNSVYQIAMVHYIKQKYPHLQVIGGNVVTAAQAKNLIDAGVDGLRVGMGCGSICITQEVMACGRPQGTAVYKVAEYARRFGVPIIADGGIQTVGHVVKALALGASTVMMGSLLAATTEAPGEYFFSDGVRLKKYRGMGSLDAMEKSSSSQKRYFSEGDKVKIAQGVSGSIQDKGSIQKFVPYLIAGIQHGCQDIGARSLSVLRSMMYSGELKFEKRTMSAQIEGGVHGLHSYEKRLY
Sequence of IMPDH (E. coli) (P0ADG7 whole entry): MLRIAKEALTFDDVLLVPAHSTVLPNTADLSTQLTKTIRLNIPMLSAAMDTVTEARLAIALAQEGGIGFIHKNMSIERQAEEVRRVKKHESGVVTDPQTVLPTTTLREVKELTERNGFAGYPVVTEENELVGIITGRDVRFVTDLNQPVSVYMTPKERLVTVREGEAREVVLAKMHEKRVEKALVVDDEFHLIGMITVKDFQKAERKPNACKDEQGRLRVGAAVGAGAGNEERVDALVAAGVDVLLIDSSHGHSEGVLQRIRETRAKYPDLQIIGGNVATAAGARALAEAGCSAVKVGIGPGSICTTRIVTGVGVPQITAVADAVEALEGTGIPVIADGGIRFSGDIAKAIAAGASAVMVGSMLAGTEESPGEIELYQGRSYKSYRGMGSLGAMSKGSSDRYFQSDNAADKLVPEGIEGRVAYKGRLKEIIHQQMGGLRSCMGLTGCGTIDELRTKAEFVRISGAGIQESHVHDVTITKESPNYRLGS

Broadly, the Ki is the dissociation constant of the complex between target and ligand, obtained from inhibition or displacement. Regarding `NC(=O)c1ncn([C@@H]2O[C@H](COP(=O)(O)O)[C@@H](O)[C@H]2O)c1O` [mizoribine-5′-monophosphate], the Ki in data set [1] was 0.5 nM; in data set [2], 8 nM.

As to `CC(C)CCOC(=O)C[C@H](NP(=O)(OC[C@H]1O[C@@H](n2cnc(C(N)=O)c2O)[C@H](O)C1O)Oc1ccccc1)C(=O)OCCC(C)C` (stereo partly drawn) [Ex 19, Mizoribine-5′-[phenyl-bis(isoamyl-L-aspartyl)]phosphate], the “suppression of disease score” value in data set [3] was “didn't show notable suppression of disease score”. In addition, the “n° sick animals” value in data set [4] (Ex19 260 mg/kg PO (equal molecule dose to MZR)) worked out at 3. Also, in data set [4] (Ex19 260 mg/kg PO), the “% sickness” value is 50%. Also, the inhibition at 65 mg/kg in data set [5] (setting [7]) was 14.7%; in data set [5] (setting [8]), 18.3%; in data set [5] (setting [9]) it was 17.5%; in data set [5] (setting [10]), 14 to 18%.

Take `NC(=O)c1ncn([C@@H]2O[C@H](CO)[C@@H](O)[C@H]2O)c1O` [Mizoribine]: the “suppression of disease score” value in data set [3] is “didn't show notable suppression of disease score”. In addition, the inhibition at 25 mg/kg was 55.6% in data set [5] (setting [7]), -8.6% in data set [5] (setting [8]) and -7.3% in data set [5] (setting [9]). Further, the “MST (median survival time) ± SD” value in data set [6] (MZR 50 mpk PO, d 0 to d 14) came to 8 ± 1.2 days; in data set [6] (MZR 50 mpk PO, d 0 to d 14, listed as MZR) it was 8 ± 1.2 days.

Regarding `NC(=O)c1ncn(C2OC(COC(=O)[C@@H](N)CC(=O)OCc3ccccc3)C(O)C2O)c1O` (stereo partly drawn) [Ex 48, Mizoribine-5′-(4-benzyl ester-L-aspartyl) ester], the inhibition at 55 mg/kg in data set [5] (setting [7]) is 77%; in data set [5] (setting [8]) it was 32.7%; in data set [5] (setting [9]) it was 27.7%; in data set [5] (setting [10]), 27.7 to 77%. The “MST (median survival time) ± SD” value in data set [6] (112 mpk PO, d 0 to d 14 post transplantation) came to 11 ± 1.0 days; in data set [6] (112 mpk PO, d 0 to d 14 post transplantation, listed as example 48), 11 ± 1.0 days.

For `C=CC[C@@H]1/C=C(\C)C[C@H](C)C[C@H](OC)[C@H]2O[C@@](O)(C(=O)C(=O)N3CCCC[C@H]3C(=O)O[C@H](/C(C)=C/[C@@H]3CC[C@@H](O)[C@H](OC)C3)[C@H](C)[C@@H](O)CC1=O)[C@H](C)C[C@@H]2OC` [FK506, tacrolimus], the “MST (median survival time) ± SD” value in data set [6] (FK506 4 mpk IM, d 0 to d 14 post transplantation, 4 mg/kg) was found to be 8 ± 1.3 days.

As for `CC(C)(C)C(=O)NC(=O)c1ncn([C@@H]2O[C@H](COC(=O)C(C)(C)C)C(O)[C@H]2O)c1O` (stereo partly drawn) [Ex 40, Mizoribine-5′-N-dipivalate], the inhibition at 40 mg/kg in data set [5] (setting [7]) is 19.4%; in data set [5] (setting [8]), 64.4%; in data set [5] (setting [9]) it was 61.3%. In addition, the “MST (median survival time) ± SD” value came to 11 ± 0.6 days in data set [6] (83 mpk PO, d 0 to d 14 post transplantation); 11 ± 0.6 days in data set [6] (83 mpk PO, d 0 to d 14 post transplantation, listed as Example 40); 11 ± 0.6 days in data set [6] (83 mpk PO, d 0 to d 14 post transplantation, listed as example 40).

On to `COc1c(C)c2c(c(O)c1C/C=C(\C)CCC(=O)OCCN1CCOCC1)C(=O)OC2` [MMF, Mycophenolate mofetil, reference compound], for which the “suppression of disease score” value in data set [3] is “didn't show notable suppression of disease score”. The inhibition at 50 mg/kg in data set [5] (given 1 hour before anti-CD3, serum IL-2 4 h after stimulation, mean of 2 mice, read-out: % inhibition of IL-2, 1 hour post administration) was 81.7%; in data set [5] (setting [8]), 52.3%; in data set [5] (setting [9]) it was 3.4%. Moreover, the “MST (median survival time) ± SD” value in data set [6] (MMF 100 mpk PO, d 0 to d 14) amounted to 11 ± 1.2 days.
